Paper PMC6376317, “Fluoromethylcyclopropylamine derivatives as potential in vivo toxicophores – A cautionary disclosure” (Bioorganic & Medicinal Chemistry Letters, 2019)
“Also recorded” adds a separate entry of the source. Where two headings read alike, the source gives them in different places.

What was measured:
[1] = target: T1, PARG (Homo sapiens, UniProt Q86W56); type: biochemical; details: read-out: PARG Enzyme Activity
[2] = target: T1, PARG; type: cell-based; details: read-out: PARG Cell Assay
[3] = Mouse microsomal stability; type: in vitro ADME; details: microsomes, read-out: Mouse Microsomes T1/2
[4] = Human liver microsomal stability; type: in vitro ADME; details: liver microsomes, read-out: Human Microsomes T1/2
Description: Table 1 Improvements to metabolic stability through cyclopropyl modification. | column: Human Microsomes T1/2 (minutes)

[5] = In vivo pharmacokinetics in CD-1 mice; parameters: species or system mouse; details: for In vivo half-life: initial in vivo PK studies; for Fold exposure relative to cell IC50: defined as [Cmax(free)]/Cell IC50
Description: (§1) Pharmacokinetics were studied in 6-8 week old male CD-1 mice following single intravenous or oral administration. Compounds were formulated as solutions comprising up to 10% DMSO with up to 10% Tween80 in saline at a concentration of approximately 1 mM. Doses were administered at 1 mg/kg (intravenous) or 5 mg/kg (oral gavage) unless otherwise stated. Blood samples were collected as dried blood spots (Agilent Bond Elut DMS cards) and assayed following solvent extraction using methanol, through a phospholipid removal plate (Phree phospholipid removal plates, Phenomenex) followed by LC-MS/MS analysis. The time-points for blood collection were as follows: oral (0.5, 1, 3, 5 and 24 h); intravenous (0.1, 0.25, 0.75, 2, 5 and 24 h). The resulting concentration-time data were analyzed by non-compartmental methods (PK Solver, Excel Add-In).

[6] = test system: CD-1 mice; test: In vivo tolerability / toxicity observation during PK studies; parameters: species or system mouse; details: for Toxicity Observed / Time of onset of ataxia after oral dosing: mice; for Tolerability in vivo: oral doses from 5 mg/kg to 160 mg/kg; for Time of onset of ataxia after oral dosing: oral dosing arm, 5 mg/kg
Description: We therefore initiated a dose-escalation study to examine dose versus exposure of the compound. […] Our following study, with derivative 12, incorporated enhanced monitoring and here we observed the onset of ataxia shortly after the 5 h sampling time point, and exclusively in the oral dosing arm of the study, despite lower absolute and free drug exposures in these dosing arms.
as §1

[7] = Metabolite identification studies; type: in vitro ADME; details: formed via removal of the cyclopropylmethyl moiety
Description: In an attempt to improve the in vivo PK profile, we undertook a series of metabolite identification studies, to determine the key sites of metabolism on 1 and 2.

[8] = geometric mean of at least two independent determinations
[9] = oral dose 5 (mg/kg), male CD-1 mice

T1 sequence (Q86W56 whole entry, species assumed): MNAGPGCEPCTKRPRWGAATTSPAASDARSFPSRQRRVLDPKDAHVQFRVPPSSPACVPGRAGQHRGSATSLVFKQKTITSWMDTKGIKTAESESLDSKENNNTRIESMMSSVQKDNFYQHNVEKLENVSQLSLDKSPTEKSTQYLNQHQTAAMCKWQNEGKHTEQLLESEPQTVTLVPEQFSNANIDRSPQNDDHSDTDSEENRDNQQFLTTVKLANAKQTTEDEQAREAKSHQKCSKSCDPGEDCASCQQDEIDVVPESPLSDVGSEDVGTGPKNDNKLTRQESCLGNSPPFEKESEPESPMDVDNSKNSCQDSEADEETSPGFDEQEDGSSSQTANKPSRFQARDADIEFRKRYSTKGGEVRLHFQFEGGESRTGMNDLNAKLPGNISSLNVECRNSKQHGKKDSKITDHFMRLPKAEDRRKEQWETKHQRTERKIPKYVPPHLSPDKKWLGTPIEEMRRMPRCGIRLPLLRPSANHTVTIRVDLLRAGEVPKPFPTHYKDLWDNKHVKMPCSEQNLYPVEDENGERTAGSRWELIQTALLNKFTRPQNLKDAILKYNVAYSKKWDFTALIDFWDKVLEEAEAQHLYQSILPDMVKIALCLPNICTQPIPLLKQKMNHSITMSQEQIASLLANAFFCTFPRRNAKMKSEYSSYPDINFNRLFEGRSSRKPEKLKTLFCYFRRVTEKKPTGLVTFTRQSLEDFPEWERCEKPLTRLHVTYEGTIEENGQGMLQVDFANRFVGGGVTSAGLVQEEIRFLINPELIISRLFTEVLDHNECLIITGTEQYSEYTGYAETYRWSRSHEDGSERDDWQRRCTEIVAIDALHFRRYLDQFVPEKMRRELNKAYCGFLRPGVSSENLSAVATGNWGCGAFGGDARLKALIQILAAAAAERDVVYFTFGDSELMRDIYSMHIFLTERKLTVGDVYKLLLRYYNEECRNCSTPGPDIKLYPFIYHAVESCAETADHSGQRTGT

Row | SMILES | IC50 [1, 8] [nM] | IC50 [2, 8] [nM] | half-life [3] [min] | half-life [4] [min] | Fold exposure relative to cell IC50 [5, 9] | Toxicity Observed ([6]; oral dose 5 (mg/kg)) | further results
1 | Cn1cc(Cn2c(=O)c3cc(S(=O)(=O)NC4(C)CC4)ccc3n(Cc3ccn(C)n3)c2=O)cn1 [Compound 1] | 20 | 90 | 22 | 53 | 0.96 | No | In vivo half-life ([5]; in words): short half-lives; Fold exposure relative to cell IC50 ([5]; oral dose 160 (mg/kg), mice): 350; Toxicity Observed ([6]; oral dose 160 (mg/kg)): No; Tolerability in vivo [6]: well tolerated; Major metabolite [7]: primary sulphonamides 3 and 4
2 | Cc1cc(Cn2c(=O)c3cc(S(=O)(=O)NC4(C)CC4)ccc3n(C)c2=O)on1 [Compound 2] |  |  |  |  |  |  | In vivo half-life ([5]; in words): short half-lives; Tolerability in vivo [6]: well tolerated; Major metabolite [7]: primary sulphonamides 3 and 4
3 | Cn1cc(Cn2c(=O)c3cc(S(=O)(=O)NC4(CF)CC4)ccc3n(Cc3ccn(C)n3)c2=O)cn1 [Compound 5] | 20 | 170 | 37 | 82 | 0.18 | No | In vivo clearance ([5]; mice, in words): very rapidly cleared after oral dosing; also recorded: high clearance
4 | Cn1cc(Cn2c(=O)c3cc(S(=O)(=O)NC4(C(F)F)CC4)ccc3n(Cc3ccn(C)n3)c2=O)cn1 [Compound 6] | 320 | 1250 | 42 | 71 |  |  | 
5 | Cn1cc(Cn2c(=O)c3cc(S(=O)(=O)NC4(C(F)(F)F)CC4)ccc3n(Cc3ccn(C)n3)c2=O)cn1 [Compound 7] | 3600 | 4100 | 38 | 102 |  |  | 
6 | [2H]C([2H])([2H])C1(NS(=O)(=O)c2ccc3c(c2)c(=O)n(Cc2cnn(C)c2)c(=O)n3Cc2ccn(C)n2)CC1 [Compound 8] | 30 | 70 | 18 | 34 |  |  | 
7 | CCn1c(=O)n(Cc2cnn(C)c2)c(=O)c2cc(S(=O)(=O)NC3(C)CC3)ccc21 [Compound 9] |  |  | 47 |  |  | No | 
8 | CCn1c(=O)n(Cc2cnn(C)c2)c(=O)c2cc(S(=O)(=O)NC3(CF)CC3)ccc21 [Compound 10] |  |  | 102 |  | 15 | well tolerated and No | IC50 [1]: 100 nM; IC50 [2]: 80 nM; Toxicity Observed ([6]; oral dose 10 (dose-escalation study)): one animal was found dead on study; also recorded: liver toxicity was the probable cause of death
9 | Cn1cc(Cn2c(=O)c3cc(S(=O)(=O)NC4(C)CC4)ccc3n(C)c2=O)cn1 [Compound 11] |  |  | 82 |  |  | No | 
10 | Cn1cc(Cn2c(=O)c3cc(S(=O)(=O)NC4(CF)CC4)ccc3n(C)c2=O)cn1 [Compound 12] |  |  | 285 |  | 61 | Ataxia | IC50 [1]: 630 nM; IC50 [2]: 290 nM; Total exposure and Cmax relative to compound 1 ([5]; in vivo, mice): over four-fold lower; Time of onset of ataxia after oral dosing [6]: > 5 h
11 | CCn1c(=O)n(Cc2cc(C)on2)c(=O)c2cc(S(=O)(=O)NC3(CF)CC3)ccc21 [Compound 13] | 1520 | 6600 | 121 |  | 0.28 | Ataxia | Time of onset of ataxia after oral dosing [6]: > 5 h
